Data reported in paper PMC4508061, “Selectivity Profiling and Biological Activity of Novel β-Carbolines as Potent and Selective DYRK1 Kinase Inhibitors” (PLoS ONE, 2015).

Experiments:
Assay in all cases: ProQinase radiometric kinase panel
Conditions in all cases: mean of 2 exp.
[1] = molecular target: ALK (Homo sapiens, UniProt Q9UM73)
[2] = molecular target: BRK (Homo sapiens, UniProt Q13882)
[3] = molecular target: CAMKK2 (Homo sapiens, UniProt Q96RR4)
[4] = molecular target: CDC42BPA (Homo sapiens, UniProt Q5VT25)
Sequence of CDC42BPA (Q5VT25 whole entry): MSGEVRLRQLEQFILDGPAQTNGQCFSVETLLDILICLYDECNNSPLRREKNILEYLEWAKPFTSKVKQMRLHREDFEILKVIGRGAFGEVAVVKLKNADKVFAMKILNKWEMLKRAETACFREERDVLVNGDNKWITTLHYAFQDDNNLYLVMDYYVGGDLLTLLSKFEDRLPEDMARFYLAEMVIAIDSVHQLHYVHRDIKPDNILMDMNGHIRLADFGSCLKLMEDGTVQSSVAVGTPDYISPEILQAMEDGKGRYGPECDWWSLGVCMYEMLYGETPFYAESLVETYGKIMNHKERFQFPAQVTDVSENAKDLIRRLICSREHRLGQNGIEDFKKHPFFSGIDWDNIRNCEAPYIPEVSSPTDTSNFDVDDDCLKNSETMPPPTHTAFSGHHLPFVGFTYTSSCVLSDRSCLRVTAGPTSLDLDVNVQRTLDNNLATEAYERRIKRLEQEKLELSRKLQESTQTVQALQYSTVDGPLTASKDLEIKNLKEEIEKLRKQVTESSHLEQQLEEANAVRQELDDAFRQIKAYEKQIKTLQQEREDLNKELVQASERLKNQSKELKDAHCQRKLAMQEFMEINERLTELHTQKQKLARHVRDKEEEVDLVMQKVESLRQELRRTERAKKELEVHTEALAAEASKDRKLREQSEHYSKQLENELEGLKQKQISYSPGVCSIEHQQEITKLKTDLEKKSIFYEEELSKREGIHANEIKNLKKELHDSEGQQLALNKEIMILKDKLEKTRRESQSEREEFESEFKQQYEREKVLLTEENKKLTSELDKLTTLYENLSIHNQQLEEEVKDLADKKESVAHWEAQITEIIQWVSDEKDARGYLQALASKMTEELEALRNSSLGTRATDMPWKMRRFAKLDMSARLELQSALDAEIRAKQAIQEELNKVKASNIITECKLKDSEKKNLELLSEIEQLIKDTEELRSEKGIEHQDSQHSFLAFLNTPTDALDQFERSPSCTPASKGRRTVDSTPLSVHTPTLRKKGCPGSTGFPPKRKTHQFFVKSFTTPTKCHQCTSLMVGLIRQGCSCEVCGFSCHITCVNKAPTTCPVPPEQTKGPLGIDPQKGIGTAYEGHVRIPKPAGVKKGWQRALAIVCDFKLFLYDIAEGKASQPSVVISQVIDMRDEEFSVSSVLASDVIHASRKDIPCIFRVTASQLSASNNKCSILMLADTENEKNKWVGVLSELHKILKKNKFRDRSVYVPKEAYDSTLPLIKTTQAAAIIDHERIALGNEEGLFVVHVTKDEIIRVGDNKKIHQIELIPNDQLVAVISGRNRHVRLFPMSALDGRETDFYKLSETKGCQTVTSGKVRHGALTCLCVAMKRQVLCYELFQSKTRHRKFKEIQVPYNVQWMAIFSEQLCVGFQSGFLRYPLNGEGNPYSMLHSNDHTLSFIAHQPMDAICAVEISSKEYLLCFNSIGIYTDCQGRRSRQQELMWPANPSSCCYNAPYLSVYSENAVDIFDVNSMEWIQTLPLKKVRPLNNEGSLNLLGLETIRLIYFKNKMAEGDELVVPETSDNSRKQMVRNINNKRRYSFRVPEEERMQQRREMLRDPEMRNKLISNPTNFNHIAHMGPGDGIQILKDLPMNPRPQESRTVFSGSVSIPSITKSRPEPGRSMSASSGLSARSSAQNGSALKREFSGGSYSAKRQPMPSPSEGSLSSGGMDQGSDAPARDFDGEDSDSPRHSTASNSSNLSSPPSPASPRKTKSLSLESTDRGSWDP

[5] = molecular target: CDK6/CycD1 (Homo sapiens, UniProt Q00534)
[6] = molecular target: CHK1 (Homo sapiens, UniProt O14757)
[7] = molecular target: CK1-gamma1 (Homo sapiens, UniProt Q9HCP0)
[8] = molecular target: CK2-alpha1 (Homo sapiens, UniProt P68400)
[9] = molecular target: EPHA3 (Homo sapiens, UniProt P29320)
[10] = molecular target: T1, HIPK4 (Homo sapiens, UniProt Q8NE63)
T1 sequence (Q8NE63 1-616): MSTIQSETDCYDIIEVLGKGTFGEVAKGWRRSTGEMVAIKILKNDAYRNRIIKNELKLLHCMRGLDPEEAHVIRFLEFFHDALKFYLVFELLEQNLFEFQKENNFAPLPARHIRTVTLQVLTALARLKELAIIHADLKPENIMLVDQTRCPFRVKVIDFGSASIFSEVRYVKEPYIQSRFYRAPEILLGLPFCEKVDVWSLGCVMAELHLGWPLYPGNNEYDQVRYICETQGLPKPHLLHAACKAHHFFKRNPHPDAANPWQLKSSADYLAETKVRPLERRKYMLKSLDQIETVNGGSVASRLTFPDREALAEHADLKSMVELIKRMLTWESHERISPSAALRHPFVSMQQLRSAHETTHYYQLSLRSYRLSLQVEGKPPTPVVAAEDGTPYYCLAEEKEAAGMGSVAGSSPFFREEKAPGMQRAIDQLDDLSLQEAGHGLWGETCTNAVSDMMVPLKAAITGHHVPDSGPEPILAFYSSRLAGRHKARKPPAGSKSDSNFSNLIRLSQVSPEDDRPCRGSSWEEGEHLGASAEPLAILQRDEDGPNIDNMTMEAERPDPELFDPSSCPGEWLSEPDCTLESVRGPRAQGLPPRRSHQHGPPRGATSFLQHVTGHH

[11] = molecular target: IKK-epsilon (Homo sapiens, UniProt Q14164)
[12] = molecular target: KIT (Homo sapiens, UniProt P10721)
Method: Gini coefficients were calculated and the Lorenz curve (Fig 3B) was plotted by applying the Microsoft Excel spreadsheet provided by Graczyk [44].
radiometric protein kinase assays.

[13] = molecular target: MARK3 (Homo sapiens, UniProt P27448)
[14] = molecular target: MEK2 (Homo sapiens, UniProt P36507)
[15] = molecular target: MERTK (Homo sapiens, UniProt Q12866)
Sequence of MERTK (Q12866 21-999): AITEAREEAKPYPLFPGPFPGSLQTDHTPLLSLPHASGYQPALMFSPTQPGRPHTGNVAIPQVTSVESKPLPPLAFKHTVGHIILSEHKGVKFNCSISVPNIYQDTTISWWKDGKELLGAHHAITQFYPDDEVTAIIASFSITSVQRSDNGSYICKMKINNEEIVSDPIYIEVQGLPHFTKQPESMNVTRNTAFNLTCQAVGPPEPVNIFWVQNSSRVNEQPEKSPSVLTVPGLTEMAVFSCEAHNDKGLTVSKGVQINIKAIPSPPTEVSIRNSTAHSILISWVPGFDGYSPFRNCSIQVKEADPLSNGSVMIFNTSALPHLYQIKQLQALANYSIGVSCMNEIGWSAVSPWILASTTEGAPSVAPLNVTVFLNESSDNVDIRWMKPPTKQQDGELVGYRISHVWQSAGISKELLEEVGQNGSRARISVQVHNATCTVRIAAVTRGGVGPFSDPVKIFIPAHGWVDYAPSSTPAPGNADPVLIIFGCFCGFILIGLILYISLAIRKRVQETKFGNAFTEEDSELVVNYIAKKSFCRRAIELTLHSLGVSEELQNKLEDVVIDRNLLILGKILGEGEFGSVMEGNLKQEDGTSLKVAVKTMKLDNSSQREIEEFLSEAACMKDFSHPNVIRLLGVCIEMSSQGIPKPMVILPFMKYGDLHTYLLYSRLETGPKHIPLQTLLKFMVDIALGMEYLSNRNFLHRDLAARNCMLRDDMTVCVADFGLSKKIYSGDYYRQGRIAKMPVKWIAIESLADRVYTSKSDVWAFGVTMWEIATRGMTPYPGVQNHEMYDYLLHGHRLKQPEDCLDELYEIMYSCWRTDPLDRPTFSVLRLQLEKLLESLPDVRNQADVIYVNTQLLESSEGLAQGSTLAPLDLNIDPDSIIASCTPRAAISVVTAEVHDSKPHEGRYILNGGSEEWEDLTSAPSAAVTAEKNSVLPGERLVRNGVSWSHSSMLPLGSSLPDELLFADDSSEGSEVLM

[16] = molecular target: PAK4 (Homo sapiens, UniProt O96013)
[17] = molecular target: PIM1 (Homo sapiens, UniProt P11309)
[18] = molecular target: PIM3 (Homo sapiens, UniProt Q86V86)
[19] = molecular target: PRKG1 (Homo sapiens, UniProt Q13976)
[20] = molecular target: PRKX (Homo sapiens, UniProt P51817)
[21] = molecular target: RIPK5 (Homo sapiens, UniProt Q6XUX3)
[22] = molecular target: ROCK1 (Homo sapiens, UniProt Q13464)
[23] = molecular target: ROCK2 (Homo sapiens, UniProt O75116)
[24] = molecular target: ROS (Homo sapiens, UniProt P08922)
[25] = molecular target: RPS6KA3 (Homo sapiens, UniProt P51812)
Sequence of RPS6KA3 (P51812 whole entry): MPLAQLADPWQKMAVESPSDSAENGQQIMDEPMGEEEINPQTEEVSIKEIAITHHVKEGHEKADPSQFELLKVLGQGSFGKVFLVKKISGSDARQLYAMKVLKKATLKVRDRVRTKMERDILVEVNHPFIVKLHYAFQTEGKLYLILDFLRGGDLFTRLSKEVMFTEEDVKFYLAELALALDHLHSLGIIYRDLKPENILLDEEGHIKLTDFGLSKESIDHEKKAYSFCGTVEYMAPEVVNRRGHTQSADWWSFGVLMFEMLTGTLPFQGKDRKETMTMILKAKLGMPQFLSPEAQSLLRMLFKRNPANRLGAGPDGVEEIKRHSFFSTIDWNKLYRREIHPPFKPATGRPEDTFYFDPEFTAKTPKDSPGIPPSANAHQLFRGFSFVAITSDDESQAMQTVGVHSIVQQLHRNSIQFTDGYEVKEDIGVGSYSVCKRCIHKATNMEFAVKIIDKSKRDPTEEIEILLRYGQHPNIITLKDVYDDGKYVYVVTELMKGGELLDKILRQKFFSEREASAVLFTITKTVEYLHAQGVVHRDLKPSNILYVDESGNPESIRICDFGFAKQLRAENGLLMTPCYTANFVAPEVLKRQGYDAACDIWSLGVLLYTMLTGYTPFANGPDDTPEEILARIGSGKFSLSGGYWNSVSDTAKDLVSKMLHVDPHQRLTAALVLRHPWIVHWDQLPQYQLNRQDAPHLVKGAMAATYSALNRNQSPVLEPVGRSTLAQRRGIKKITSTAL

[26] = molecular target: RPS6KA4 (Homo sapiens, UniProt O75676)
[27] = molecular target: SGK3 (Homo sapiens, UniProt Q96BR1)
[28] = molecular target: SNARK (Homo sapiens, UniProt Q9H093)
[29] = molecular target: SRMS (Homo sapiens, UniProt Q9H3Y6)
[30] = molecular target: STK39 (Homo sapiens, UniProt Q9UEW8)
[31] = molecular target: TRK-C (Homo sapiens, UniProt Q16288)
[32] = molecular target: ZAK (Homo sapiens, UniProt Q9NYL2)

Sequence of ALK (Q9UM73 19-1620): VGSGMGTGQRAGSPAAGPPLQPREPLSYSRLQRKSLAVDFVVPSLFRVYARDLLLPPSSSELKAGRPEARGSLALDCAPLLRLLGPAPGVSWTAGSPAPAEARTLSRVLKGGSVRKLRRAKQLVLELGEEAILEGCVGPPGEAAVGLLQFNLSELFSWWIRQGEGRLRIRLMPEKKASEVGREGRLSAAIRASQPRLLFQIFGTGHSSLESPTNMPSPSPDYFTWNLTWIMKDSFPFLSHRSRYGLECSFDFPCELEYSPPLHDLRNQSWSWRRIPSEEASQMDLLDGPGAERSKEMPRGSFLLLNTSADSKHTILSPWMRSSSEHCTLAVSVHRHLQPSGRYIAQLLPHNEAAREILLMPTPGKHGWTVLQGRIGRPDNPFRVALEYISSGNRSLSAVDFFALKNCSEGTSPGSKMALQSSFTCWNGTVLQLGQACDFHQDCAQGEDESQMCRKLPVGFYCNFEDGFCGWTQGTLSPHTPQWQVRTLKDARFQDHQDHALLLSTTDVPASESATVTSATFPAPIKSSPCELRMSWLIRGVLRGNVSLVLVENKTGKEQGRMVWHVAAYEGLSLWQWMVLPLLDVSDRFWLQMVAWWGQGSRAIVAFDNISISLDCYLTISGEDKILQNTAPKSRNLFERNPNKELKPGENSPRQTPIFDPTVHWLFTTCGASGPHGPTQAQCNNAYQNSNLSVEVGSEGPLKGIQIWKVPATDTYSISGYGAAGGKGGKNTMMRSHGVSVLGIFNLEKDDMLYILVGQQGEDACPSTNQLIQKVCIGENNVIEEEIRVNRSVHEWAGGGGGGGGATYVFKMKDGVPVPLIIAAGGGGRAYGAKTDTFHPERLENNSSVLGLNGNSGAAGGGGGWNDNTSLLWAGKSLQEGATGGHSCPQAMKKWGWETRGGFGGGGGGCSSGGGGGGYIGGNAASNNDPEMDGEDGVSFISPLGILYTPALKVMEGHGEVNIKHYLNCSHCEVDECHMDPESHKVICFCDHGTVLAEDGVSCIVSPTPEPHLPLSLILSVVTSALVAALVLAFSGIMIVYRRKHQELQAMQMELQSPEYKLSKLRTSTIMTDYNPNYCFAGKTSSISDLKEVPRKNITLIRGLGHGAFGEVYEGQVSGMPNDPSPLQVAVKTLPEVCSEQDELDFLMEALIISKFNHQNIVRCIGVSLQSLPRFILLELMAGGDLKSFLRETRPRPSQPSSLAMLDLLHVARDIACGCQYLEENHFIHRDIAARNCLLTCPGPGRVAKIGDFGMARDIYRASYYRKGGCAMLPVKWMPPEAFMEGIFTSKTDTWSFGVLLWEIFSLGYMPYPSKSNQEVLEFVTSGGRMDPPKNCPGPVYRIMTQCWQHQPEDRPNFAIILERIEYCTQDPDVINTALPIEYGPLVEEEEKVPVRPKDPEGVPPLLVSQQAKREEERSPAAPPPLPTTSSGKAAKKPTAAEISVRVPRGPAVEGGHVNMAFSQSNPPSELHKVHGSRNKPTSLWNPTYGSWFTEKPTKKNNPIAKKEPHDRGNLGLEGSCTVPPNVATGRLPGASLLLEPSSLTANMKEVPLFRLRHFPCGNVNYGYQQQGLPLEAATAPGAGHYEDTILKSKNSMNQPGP

In the case of COc1ccc2c3ccnc(Cl)c3n(CC#N)c2c1 [AnnH75], the “residual activity at 1 µM, Mean” value [1] is reported as 98 % of control, the “residual activity at 1 µM, Mean” value [2] is reported as 97 % of control and the “residual activity at 1 µM, Mean” value [3] is reported as 86 % of control. For the same molecule, the “residual activity at 1 µM, Mean” value [4] was 76 % of control, the “residual activity at 1 µM, Mean” value [5] was 95 % of control and the “residual activity at 1 µM, Mean” value [6] was 100 % of control. For the same molecule, the “residual activity at 1 µM, Mean” value [7] was 92 % of control, the “residual activity at 1 µM, Mean” value [8] was 96 % of control and the “residual activity at 1 µM, Mean” value [9] was 105 % of control. The “residual activity at 1 µM, Mean” value [10] was 88 % of control, the “residual activity at 1 µM, Mean” value [11] was 95 % of control and the “residual activity at 1 µM, Mean” value [12] was 82 % of control. The “residual activity at 1 µM, Mean” value [13] was 100 % of control, the “residual activity at 1 µM, Mean” value [14] was 37 % of control and the “residual activity at 1 µM, Mean” value [15] was 91 % of control. The “residual activity at 1 µM, Mean” value [16] was 94 % of control, the “residual activity at 1 µM, Mean” value [17] was 41 % of control and the “residual activity at 1 µM, Mean” value [18] was 44 % of control. The “residual activity at 1 µM, Mean” value [19] was 87 % of control, the “residual activity at 1 µM, Mean” value [20] was 80 % of control and the “residual activity at 1 µM, Mean” value [21] was 91 % of control. For the same molecule, the “residual activity at 1 µM, Mean” value [22] was 73 % of control, the “residual activity at 1 µM, Mean” value [23] was 79 % of control and the “residual activity at 1 µM, Mean” value [24] was 94 % of control. The “residual activity at 1 µM, Mean” value [25] was 101 % of control, the “residual activity at 1 µM, Mean” value [26] was 95 % of control and the “residual activity at 1 µM, Mean” value [27] was 108 % of control. For the same molecule, the “residual activity at 1 µM, Mean” value [28] was 95 % of control, the “residual activity at 1 µM, Mean” value [29] was 92 % of control and the “residual activity at 1 µM, Mean” value [30] was 85 % of control. The “residual activity at 1 µM, Mean” value [31] was 87 % of control and the “residual activity at 1 µM, Mean” value [32] was 94 % of control.
